From ChEMBL document CHEMBL1134724, “Novel (4-piperazin-1-ylquinolin-6-yl) arylsulfonamides with high affinity and selectivity for the 5-HT(6) receptor” (Bioorg Med Chem Lett, 2001) come the findings set out here.

The structures appear in SMILES notation. pKi: −log10 of the molar value. A value given as a limit tells only on which side of the number the result lay.

Experiment [1] concerns the target T1, 5-hydroxytryptamine receptor 6 (Homo sapiens, UniProt P50406). Kind of experiment: Binding affinity against human 5-hydroxytryptamine 6 receptor.
The nature of experiment [2]: Selectivity ratio as antilogarithm of smallest difference between the pKi value at 5-HT6 receptor and range of comparator receptors.
For experiment [3], the target named is T2, 5-hydroxytryptamine receptor 1A (Homo sapiens, UniProt P08908).
T2 sequence (P08908 whole entry): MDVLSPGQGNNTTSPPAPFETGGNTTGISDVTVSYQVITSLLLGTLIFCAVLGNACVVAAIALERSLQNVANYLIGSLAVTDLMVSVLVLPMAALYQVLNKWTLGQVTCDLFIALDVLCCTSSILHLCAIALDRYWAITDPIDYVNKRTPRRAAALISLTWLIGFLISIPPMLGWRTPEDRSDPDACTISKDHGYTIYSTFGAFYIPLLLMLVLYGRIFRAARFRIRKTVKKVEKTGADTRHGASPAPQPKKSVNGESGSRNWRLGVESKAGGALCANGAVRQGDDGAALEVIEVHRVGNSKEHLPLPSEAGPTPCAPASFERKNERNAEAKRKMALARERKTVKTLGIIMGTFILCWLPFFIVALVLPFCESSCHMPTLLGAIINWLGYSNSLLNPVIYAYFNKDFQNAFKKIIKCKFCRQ
Kind of experiment: Binding affinity to human cloned 5-hydroxytryptamine 1A receptor in HEK 293 cells using [3H]-8-OH- DPAT as radioligand. In kind it is cell-based, HEK293.

The target of experiment [4] is 5-hydroxytryptamine receptor 1B (Homo sapiens, UniProt P28222). As to the kind of experiment: Binding affinity to human cloned 5-hydroxytryptamine 1B receptor in CHO cells using [3H]5-HT as radioligand. It counts as cell-based.
Experiment [5] concerns the target 5-hydroxytryptamine receptor 1D (Homo sapiens, UniProt P28221). As to the kind of experiment: Binding affinity to human cloned 5-hydroxytryptamine 1D receptor in CHO cells using [3H]5-HT as radioligand. It counts as cell-based.
Experiment [6] has as its target 5-hydroxytryptamine receptor 2A (Homo sapiens, UniProt P28223). Kind of experiment: Binding affinity to human cloned 5-hydroxytryptamine 2A receptor in HEK 293 cells using [3H]- ketanserin as radioligand. In kind it is cell-based, HEK293.
Experiment [7] concerns the target T3, 5-hydroxytryptamine receptor 2C (Homo sapiens, UniProt P28335).
T3 sequence (P28335 whole entry): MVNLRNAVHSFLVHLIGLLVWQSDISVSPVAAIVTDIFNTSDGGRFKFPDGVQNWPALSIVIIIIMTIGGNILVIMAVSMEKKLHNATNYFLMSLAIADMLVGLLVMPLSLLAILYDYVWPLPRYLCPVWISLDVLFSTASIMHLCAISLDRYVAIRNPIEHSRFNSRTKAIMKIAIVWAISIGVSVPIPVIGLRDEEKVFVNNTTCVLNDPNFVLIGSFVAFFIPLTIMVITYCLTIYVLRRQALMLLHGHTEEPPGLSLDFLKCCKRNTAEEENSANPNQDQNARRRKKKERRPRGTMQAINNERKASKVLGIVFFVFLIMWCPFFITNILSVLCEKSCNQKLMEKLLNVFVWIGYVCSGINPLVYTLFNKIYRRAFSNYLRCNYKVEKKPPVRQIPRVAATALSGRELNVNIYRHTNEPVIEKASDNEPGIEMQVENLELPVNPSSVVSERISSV
As to the kind of experiment: Binding affinity to human cloned 5-hydroxytryptamine 2C receptor in HEK 293 cells using [3H]- mesulergine as radioligand. In kind it is cell-based, HEK293.

Experiment [8] addresses 5-hydroxytryptamine receptor 2B (Homo sapiens, UniProt P41595). As to the kind of experiment: Binding affinity to human cloned 5-HT2B receptor in HEK 293 cells using [3H]- -5-HT as radioligand. It counts as cell-based, HEK293.
In experiment [9] the target is 5-hydroxytryptamine receptor 7 (Homo sapiens, UniProt P34969). As to the kind of experiment: Binding affinity to human cloned 5-hydroxytryptamine 7 receptor in HEK 293 cells using [3H]-5-CT as radioligand. In kind it is cell-based, HEK293.
Experiment [10] concerns the target T1, 5-hydroxytryptamine receptor 6. Kind of experiment: Binding affinity to human cloned 5-HT6 receptor in HeLa cells using [3H]- LSD as radioligand. It counts as cell-based.
The target of the next experiment is D(2) dopamine receptor (Homo sapiens, UniProt P14416). Kind of experiment: Binding affinity to human cloned Dopamine receptor D2 in CHO cells using [125I]- iodosulpride as radioligand. It counts as cell-based.
Another experiment addresses D(3) dopamine receptor (Homo sapiens, UniProt P35462). As to the kind of experiment: Binding affinity to human cloned Dopamine receptor D3 in CHO cells using [125I]- iodosulpride as radioligand. It counts as cell-based.
For experiment [11], the target named is T1, 5-hydroxytryptamine receptor 6. As to the kind of experiment: Binding affinity to human cloned 5-hydroxytryptamine 6 receptor in HeLa cells using [3H]- LSD as radioligand. It counts as cell-based.

D(3) dopamine receptor, sequence (P35462 whole entry): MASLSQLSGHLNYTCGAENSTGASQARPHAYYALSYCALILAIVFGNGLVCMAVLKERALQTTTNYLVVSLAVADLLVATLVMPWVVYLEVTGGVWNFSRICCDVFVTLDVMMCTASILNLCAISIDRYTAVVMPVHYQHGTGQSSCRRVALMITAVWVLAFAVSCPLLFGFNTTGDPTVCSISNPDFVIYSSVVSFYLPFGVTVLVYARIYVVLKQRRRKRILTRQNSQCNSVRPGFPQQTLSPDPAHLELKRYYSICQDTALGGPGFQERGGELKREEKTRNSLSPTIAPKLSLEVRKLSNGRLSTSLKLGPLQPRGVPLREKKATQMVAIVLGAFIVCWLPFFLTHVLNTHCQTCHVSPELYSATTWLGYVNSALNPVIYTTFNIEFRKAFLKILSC
5-hydroxytryptamine receptor 7, sequence (P34969 whole entry): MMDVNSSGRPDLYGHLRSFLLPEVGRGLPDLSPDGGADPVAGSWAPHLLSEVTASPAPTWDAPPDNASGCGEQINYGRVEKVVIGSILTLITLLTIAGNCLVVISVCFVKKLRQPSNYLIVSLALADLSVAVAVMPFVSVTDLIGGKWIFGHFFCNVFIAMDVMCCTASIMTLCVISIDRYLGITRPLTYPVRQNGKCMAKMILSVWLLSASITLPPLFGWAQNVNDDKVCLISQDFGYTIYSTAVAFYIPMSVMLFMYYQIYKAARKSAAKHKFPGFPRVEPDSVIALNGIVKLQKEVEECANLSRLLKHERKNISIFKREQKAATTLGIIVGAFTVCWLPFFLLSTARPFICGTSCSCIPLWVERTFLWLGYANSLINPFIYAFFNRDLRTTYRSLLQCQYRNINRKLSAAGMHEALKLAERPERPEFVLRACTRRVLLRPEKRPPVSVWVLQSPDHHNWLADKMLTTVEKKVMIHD
5-hydroxytryptamine receptor 1D, sequence (P28221 whole entry): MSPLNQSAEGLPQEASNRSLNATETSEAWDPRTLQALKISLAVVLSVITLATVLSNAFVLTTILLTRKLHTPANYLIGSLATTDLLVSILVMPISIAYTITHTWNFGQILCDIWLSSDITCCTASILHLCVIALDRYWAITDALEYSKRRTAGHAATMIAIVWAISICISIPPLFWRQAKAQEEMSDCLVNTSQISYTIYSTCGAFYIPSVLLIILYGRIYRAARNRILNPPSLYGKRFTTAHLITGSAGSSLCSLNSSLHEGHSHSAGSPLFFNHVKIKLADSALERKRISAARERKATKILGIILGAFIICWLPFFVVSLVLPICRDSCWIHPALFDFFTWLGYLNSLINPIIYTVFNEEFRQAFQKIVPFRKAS
5-hydroxytryptamine receptor 2B, sequence (P41595 whole entry): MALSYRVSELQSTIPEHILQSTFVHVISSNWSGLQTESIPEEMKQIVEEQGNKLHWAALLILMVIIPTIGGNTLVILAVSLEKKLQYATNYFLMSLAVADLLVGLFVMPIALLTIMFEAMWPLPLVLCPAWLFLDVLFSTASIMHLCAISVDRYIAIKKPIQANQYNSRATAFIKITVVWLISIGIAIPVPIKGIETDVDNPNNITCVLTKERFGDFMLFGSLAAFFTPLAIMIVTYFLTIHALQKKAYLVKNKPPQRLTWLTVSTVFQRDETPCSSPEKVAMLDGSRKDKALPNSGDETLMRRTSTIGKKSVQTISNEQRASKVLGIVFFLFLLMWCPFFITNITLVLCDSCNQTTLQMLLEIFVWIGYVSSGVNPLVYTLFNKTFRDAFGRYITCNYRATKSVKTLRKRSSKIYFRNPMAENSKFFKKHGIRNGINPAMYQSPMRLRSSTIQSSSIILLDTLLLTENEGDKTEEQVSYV
T1 sequence (P50406 whole entry): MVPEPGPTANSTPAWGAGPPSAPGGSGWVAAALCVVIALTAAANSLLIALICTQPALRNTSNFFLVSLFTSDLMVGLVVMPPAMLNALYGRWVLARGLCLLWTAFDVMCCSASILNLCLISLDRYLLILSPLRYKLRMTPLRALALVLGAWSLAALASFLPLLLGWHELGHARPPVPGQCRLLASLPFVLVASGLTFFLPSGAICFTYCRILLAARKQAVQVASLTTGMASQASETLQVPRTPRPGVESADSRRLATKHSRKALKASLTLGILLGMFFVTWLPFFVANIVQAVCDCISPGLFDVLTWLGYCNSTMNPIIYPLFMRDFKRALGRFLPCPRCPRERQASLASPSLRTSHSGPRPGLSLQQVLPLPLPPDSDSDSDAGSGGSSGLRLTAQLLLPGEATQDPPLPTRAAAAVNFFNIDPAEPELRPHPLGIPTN
5-hydroxytryptamine receptor 2A, sequence (P28223 whole entry): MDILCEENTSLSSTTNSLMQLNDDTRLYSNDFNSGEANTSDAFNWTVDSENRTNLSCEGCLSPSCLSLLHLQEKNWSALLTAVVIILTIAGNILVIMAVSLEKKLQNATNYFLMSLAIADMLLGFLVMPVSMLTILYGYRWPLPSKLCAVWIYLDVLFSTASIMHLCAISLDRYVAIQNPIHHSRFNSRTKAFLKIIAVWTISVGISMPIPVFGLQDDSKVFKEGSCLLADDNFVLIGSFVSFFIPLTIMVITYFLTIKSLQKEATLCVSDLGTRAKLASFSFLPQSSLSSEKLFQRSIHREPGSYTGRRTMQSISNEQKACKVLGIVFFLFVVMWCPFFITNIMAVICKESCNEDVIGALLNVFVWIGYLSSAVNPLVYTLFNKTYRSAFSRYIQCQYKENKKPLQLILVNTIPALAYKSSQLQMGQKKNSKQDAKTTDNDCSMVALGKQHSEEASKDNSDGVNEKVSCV
5-hydroxytryptamine receptor 1B, sequence (P28222 whole entry): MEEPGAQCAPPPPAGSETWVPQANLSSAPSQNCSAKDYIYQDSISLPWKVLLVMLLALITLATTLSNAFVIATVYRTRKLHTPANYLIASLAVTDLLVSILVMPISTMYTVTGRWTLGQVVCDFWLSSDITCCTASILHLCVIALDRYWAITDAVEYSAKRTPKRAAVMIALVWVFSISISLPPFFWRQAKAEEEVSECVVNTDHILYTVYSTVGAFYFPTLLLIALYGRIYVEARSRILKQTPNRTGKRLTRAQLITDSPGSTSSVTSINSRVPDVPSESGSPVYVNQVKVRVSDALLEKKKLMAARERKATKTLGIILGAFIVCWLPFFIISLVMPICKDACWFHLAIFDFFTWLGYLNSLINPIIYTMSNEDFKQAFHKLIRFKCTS
D(2) dopamine receptor, sequence (P14416 whole entry): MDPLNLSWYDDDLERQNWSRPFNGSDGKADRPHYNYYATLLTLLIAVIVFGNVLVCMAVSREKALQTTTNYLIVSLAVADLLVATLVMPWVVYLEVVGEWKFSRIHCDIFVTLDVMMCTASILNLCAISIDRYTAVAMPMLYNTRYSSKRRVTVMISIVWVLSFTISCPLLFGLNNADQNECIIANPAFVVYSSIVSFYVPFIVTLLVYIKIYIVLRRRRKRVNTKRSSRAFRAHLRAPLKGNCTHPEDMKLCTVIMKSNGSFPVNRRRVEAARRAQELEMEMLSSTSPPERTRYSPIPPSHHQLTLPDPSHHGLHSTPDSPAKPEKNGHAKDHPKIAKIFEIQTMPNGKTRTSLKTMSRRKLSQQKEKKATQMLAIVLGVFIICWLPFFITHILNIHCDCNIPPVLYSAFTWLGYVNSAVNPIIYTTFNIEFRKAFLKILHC

The pKi is the Ki on a negative log10 scale, so that one unit is a factor of ten. A high value points to a low Ki. As for `Cc1c(S(=O)(=O)Nc2ccc3nccc(N4C[C@@H](C)NC[C@@H]4C)c3c2)sc2ccc(Cl)cc12`, the pKi in experiment [1] is 7.50.

As to `Cc1c(S(=O)(=O)Nc2ccc3nccc(N4CCN5CCC[C@H]5C4)c3c2)sc2ccc(Cl)cc12`, the pKi in experiment [1] is 8.70. The Selectivity ratio in experiment [2] was 130.

For `CCc1c(S(=O)(=O)Nc2ccc3nccc(N4CCNCC4)c3c2)sc2ccc(Cl)cc12`, the negative-log Ki (pKi) is under 5.40 in experiment [3]; 5.50 in experiment [4]; 5.60 in [5]; under 5.90 in experiment [6]; 5.90 in experiment [7]; under 5.40 in experiment [8]. Moreover, the pKi was under 5.30 in [9]; 8.90 in experiment [1]; 8.90 in experiment [10]; under 6.00 on D(2) dopamine receptor; under 5.00 on D(3) dopamine receptor. Moreover, the Selectivity ratio in experiment [2] was determined as 1000.

`Cc1c(S(=O)(=O)Nc2ccc3nccc(N4CCN[C@H](C)C4)c3c2)sc2ccc(Cl)cc12` gave a negative logarithm of the Ki (pKi) in experiment [1] of 8.70. The Selectivity ratio in [2] came out at 3200.

In the case of `Cc1sc2c(Cl)cc(Cl)cc2c1S(=O)(=O)Nc1ccc2nccc(N3CCNCC3)c2c1`, in experiment [1], the pKi was 8.70. Besides, the Selectivity ratio in [2] came to 200.

For `CC(C)(C)c1ccc(S(=O)(=O)Nc2ccc3nccc(N4CCNCC4)c3c2)cc1`, the pKi in experiment [3] was 6.10; in experiment [4], 5.80; in [5] it was 5.90; in [6] it was under 5.50; in experiment [7], under 5.70; in [8], under 5.30. The pKi in experiment [9] was under 5.00; in experiment [1] it was 9.20; in [11], 9.20; at D(2) dopamine receptor it was under 5.00; at D(3) dopamine receptor it was under 5.30. The Selectivity ratio in experiment [2] was 1260.

In experiment [1], `O=S(=O)(Nc1ccc2nccc(N3CCNCC3)c2c1)c1ccc(I)cc1` had a pKi of 8.80. In experiment [2], the Selectivity ratio came to 100.

As for `Cc1c(S(=O)(=O)Nc2ccc3nccc(N4CCN[C@@H](C)C4)c3c2)sc2ccc(Cl)cc12`, the pKi in [3] is 6.00; in [4], 5.60; in experiment [5] it was 6.40; in experiment [6], under 5.60; in [7], under 5.40; in [8], under 5.20. Also, the pKi in experiment [9] is under 5.30; in experiment [1] it was 8.90; in experiment [10], 8.90; on D(2) dopamine receptor it was under 5.50; at D(3) dopamine receptor, under 5.70. Moreover, the Selectivity ratio in experiment [2] amounted to 320.

Regarding `CC(C)c1c(S(=O)(=O)Nc2ccc3nccc(N4CCNCC4)c3c2)sc2ccc(Cl)cc12`, the pKi in experiment [1] is 8.80. Further, the Selectivity ratio in experiment [2] worked out at 160.

Consider `Cc1c(S(=O)(=O)Nc2ccc3nccc(N4CCN(C)CC4)c3c2)sc2ccc(Cl)cc12`, for which the pKi in [3] is 6.10; in [4], 6.30; in [5] it was 6.60; in experiment [6], 6.00; in experiment [7], under 5.30; in experiment [8], under 5.00. Besides, the pKi in experiment [9] was 5.70; in experiment [1], 9.00; in experiment [10], 9.00; on D(2) dopamine receptor, under 5.10; at D(3) dopamine receptor, under 5.40. In experiment [2], the Selectivity ratio turned out to be 250.

Consider `Cc1c(S(=O)(=O)Nc2ccc3ncc(N4CCN(C)CC4)cc3c2)sc2ccc(Cl)cc12`, for which the pKi in experiment [1] is 7.10.

`Cc1cnc2ccc(NS(=O)(=O)c3sc4ccc(Cl)cc4c3C)cc2c1N1CCNCC1` had a pKi in experiment [1] of 8.60. Besides, in experiment [2], the Selectivity ratio worked out at 100.

Turning to `Cc1c(S(=O)(=O)Nc2ccc3nccc(N4C[C@@H](C)N[C@@H](C)C4)c3c2)sc2ccc(Cl)cc12`, the pKi in [1] was 8.30. Besides, the Selectivity ratio in [2] is 160.

Consider `O=S(=O)(Nc1ccc2nccc(N3CCNCC3)c2c1)c1cccc2c(Cl)cccc12`, for which the pKi in [1] is 8.50. In experiment [2], the Selectivity ratio is 80.

As to `Cc1sc2ccc(Cl)cc2c1S(=O)(=O)Nc1ccc2nccc(N3CCNCC3)c2c1`, the pKi in [3] was 6.60; in [4] it was 6.30; in experiment [5], 6.40; in [6], under 5.70; in [7] it was 5.90; in [8] it was 5.90. Further, the pKi in experiment [9] is 5.80; in experiment [1], 9.00; in [10], 9.00; at D(2) dopamine receptor, under 5.40; on D(3) dopamine receptor it was under 5.80. Further, the Selectivity ratio in experiment [2] worked out at 250.

As for `Cc1c(S(=O)(=O)Nc2ccc3nccc(N4CCN[C@H](C(C)C)C4)c3c2)sc2ccc(Cl)cc12`, the pKi in experiment [1] is 7.70.

The compound `O=S(=O)(Nc1ccc2nccc(N3CCNCC3)c2c1)c1cc(Cl)cc(Cl)c1` had a pKi in experiment [1] of 7.60.

As for `Cc1cc(N2CCNCC2)c2cc(NS(=O)(=O)c3sc4ccc(Cl)cc4c3C)ccc2n1`, the pKi in experiment [3] was 6.10; in experiment [4], 5.90; in experiment [5], 6.50; in experiment [6] it was under 5.70; in experiment [7], 5.60; in experiment [8], under 5.10. For the same compound, the pKi is under 5.30 in [9]; 8.90 in experiment [1]; 8.90 in experiment [10]; under 5.20 on D(2) dopamine receptor; under 6.00 on D(3) dopamine receptor. Moreover, in [2], the Selectivity ratio amounted to 250.

The compound `Cc1c(S(=O)(=O)Nc2ccc3nccc(N4CCNCC4)c3c2)oc2ccc(Cl)cc12` gave a negative logarithm of the Ki (pKi) in [1] of 8.40. Also, in [2], the Selectivity ratio amounted to 200.

In turn, `Cc1c(S(=O)(=O)Nc2ccc3nccc(N4CCNCC4)c3c2)sc2c(Cl)cc(Cl)cc12` gave a pKi in experiment [1] of 8.20. For the same compound, in experiment [2], the Selectivity ratio stood at 25.

As to `Cc1cc(S(=O)(=O)Nc2ccc3nccc(N4CCNCC4)c3c2)c(C)cc1Cl`, the pKi in [1] was 8.90. Besides, the Selectivity ratio in experiment [2] was determined as 500.

Regarding `Cc1sc2cc(Cl)cc(Cl)c2c1S(=O)(=O)Nc1ccc2nccc(N3CCNCC3)c2c1`, in experiment [1], the negative-log Ki (pKi) is 8.10. Besides, the Selectivity ratio in experiment [2] was found to be 40.

In the case of `Cc1c(S(=O)(=O)Nc2ccc3nccc(N4CCNCC4)c3c2)sc2ccc(Cl)cc12`, the pKi in [3] is 6.00; in [4] it was 5.70; in [5], 6.20; in experiment [6] it was under 5.60; in [7], under 5.60; in experiment [8], under 5.30. For the same compound, the pKi in experiment [9] is under 5.10; in experiment [1] it was 8.70; in experiment [10], 8.70; at D(2) dopamine receptor, under 5.00; on D(3) dopamine receptor, under 5.80. Moreover, the Selectivity ratio in experiment [2] was determined as 320.

Consider `O=S(=O)(Nc1ccc2nccc(N3CCNCC3)c2c1)c1ccc2c(Cl)cccc2c1`, for which the pKi in experiment [3] is 6.80; in [4] it was 6.20; in [5], 6.70; in [6] it was 6.00; in experiment [7], under 5.60; in experiment [8], under 5.30. Besides, the pKi in experiment [9] was 5.60; in [1], 9.00; in experiment [10] it was 9.00; at D(2) dopamine receptor, under 5.30; at D(3) dopamine receptor, 5.60. In addition, the Selectivity ratio in experiment [2] was 160.

Take `Cc1sc2c(Cl)cccc2c1S(=O)(=O)Nc1ccc2nccc(N3CCNCC3)c2c1`: in [1], the pKi is 8.70. Besides, the Selectivity ratio in [2] was determined as 130.

Turning to `O=S(=O)(Nc1ccc2nccc(N3CCNCC3)c2c1)c1ccc(-c2ccccc2)cc1`, the pKi in experiment [3] is 6.20; in experiment [4], 6.50; in experiment [5], 6.80; in [6], 6.30; in experiment [8], under 5.10; in experiment [9], under 5.00. The pKi in experiment [1] is 9.30; in experiment [10], 9.30; on D(2) dopamine receptor, under 5.30; at D(3) dopamine receptor, under 5.50. In [2], the Selectivity ratio came to 320.
